Data from the supplement of paper PMC4862054.

How the values were obtained:
BT-549 [1] = assay: normalised viability (% of control), CellTiter-Blue; higher = more viable cells (about 100 = DMSO control); conditions: 100 nM; incubation time: 72 h
In short: (§1)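 The reported figure is normalised viability at a single listed concentration of the series. Breast cancer cell lines (20 µl suspension) went onto 384-well plates holding compound in 5 µl medium for 72 h. CellTiter-Blue (2.5 µl, 2 h, 37 °C) was read by fluorescence at 560/590 nm, and each plate was scaled to vehicle at 100 and a positive kill control at 0.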

CAL-148 [2] = assay: as above; conditions: 3 nM; incubation time: 72 h
In short: as §1

MDA-MB-453 [3] = assay: as above; conditions: 3 nM; incubation time: 72 h
In short: as §1

MFM-223 = assay: as above; conditions: 100 nM; incubation time: 72 h
In short: as §1

Hs578T [4] = assay: as above; conditions: 100 nM; incubation time: 72 h
In short: as §1

HCC1937 [5] = assay: as above; conditions: 100 nM; incubation time: 72 h
In short: as §1

MDA-MB-468 [6] = assay: as above; conditions: 100 nM; incubation time: 72 h
In short: as §1

HCC1599 = assay: as above; conditions: 100 nM; incubation time: 72 h
In short: as §1

CAL-120 [7] = assay: as above; conditions: 100 nM; incubation time: 72 h
In short: as §1

MDA-MB-436 [8] = assay: as above; conditions: 100 nM; incubation time: 72 h
In short: as §1

BT-474 [9] = assay: as above; conditions: 100 nM; incubation time: 72 h
In short: as §1

SK-BR-3 [10] = assay: as above; conditions: 100 nM; incubation time: 72 h
In short: as §1

CAL-51 [11] = assay: as above; conditions: 3 nM; incubation time: 72 h
In short: as §1

HCC1143 = assay: as above; conditions: 100 nM; incubation time: 72 h
In short: as §1

BT-549 [12] = assay: drug sensitivity score (DSS), CellTiter-Glo (DSS (AUC-based score)); higher = stronger drug effect (viability inhibition or cytotoxicity); extreme values may be limits of the assay; conditions: incubation time: 72 h
In short: (§2)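 The drug sensitivity score reflects the area under a fitted dose-response curve. To obtain it, breast cancer cells in 20 µl suspension were seeded into 384-well plates containing compound at 5 concentrations, 10-fold apart over a compound-specific 10,000-fold range, and incubated 72 h. CellTox Green fluorescence (485/520 nm) was read first and CellTiter-Glo luminescence second, after 10 min at room temperature. Each plate was normalised to 0.1 % DMSO and a positive kill control.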

CAL-148 [13] = assay: as above; conditions: incubation time: 72 h
In short: as §2

MDA-MB-468 [14] = assay: as above; conditions: incubation time: 72 h
In short: as §2

CAL-85-1 [15] = assay: as above; conditions: incubation time: 72 h
In short: as §2

BT-474 [16] = assay: as above; conditions: incubation time: 72 h
In short: as §2

SK-BR-3 [17] = assay: as above; conditions: incubation time: 72 h
In short: as §2

MCF-10A [18] = assay: as above; conditions: incubation time: 72 h
In short: as §2

HDQ-P1 = assay: as above; conditions: incubation time: 72 h
In short: as §2

BT-549 [19] = conditions: 72 h
In short: (§3)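 Two sequential readouts followed a 72 h incubation of breast cancer cell lines with compound at 5 concentrations in 10-fold steps over a compound-specific 10,000-fold range: CellTox Green fluorescence (485/520 nm) for cell death, then CellTiter-Glo luminescence, after 10 min at room temperature, for viability. Each plate was normalised to 0.1 % DMSO and a positive kill control. Dose-response curves were fitted for EC50, censored at the top concentration.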

MDA-MB-453 [20] = conditions: 72 h
In short: as §3

Hs578T [21] = conditions: 72 h
In short: as §3

MDA-MB-468 [22] = conditions: 72 h
In short: as §3

CAL-85-1 [23] = conditions: 72 h
In short: as §3

CAL-120 [24] = conditions: 72 h
In short: as §3

MDA-MB-231 = conditions: 72 h
In short: as §3

MDA-MB-436 [25] = conditions: 72 h
In short: as §3

BT-474 [26] = conditions: 72 h
In short: as §3

SK-BR-3 [27] = conditions: 72 h
In short: as §3

MCF-10A [28] = conditions: 72 h
In short: as §3

CAL-51 [29] = conditions: 72 h
In short: as §3

HCC1937 [30] = conditions: 72 h
In short: as §3

What does the source list for O=C1NC(=O)[C@@H](c2cn3c4c(cccc24)CCC3)[C@@H]1c1c[nH]c2ccccc12 [Tivantinib]?
normalised viability (BT-549 [1]): 96.5%; normalised viability (CAL-148 [2]): 93%; normalised viability (MDA-MB-453 [3]): 108%; normalised viability (MFM-223): 87.2%; normalised viability (Hs578T [4]): 114%; normalised viability (HCC1937 [5]): 64.6%; normalised viability (MDA-MB-468 [6]): 103%; normalised viability (HCC1599): 95.7%; normalised viability (CAL-120 [7]): 79.8%; normalised viability (MDA-MB-436 [8]): 56.6%; normalised viability (BT-474 [9]): 106%; normalised viability (SK-BR-3 [10]): 99.9%; normalised viability (CAL-51 [11]): 104%; normalised viability (HCC1143): 93%; drug sensitivity score (BT-549 [12]): 2.94; drug sensitivity score (CAL-148 [13]): 1.93; drug sensitivity score (MDA-MB-468 [14]): 2.74; drug sensitivity score (CAL-85-1 [15]): 3.66; drug sensitivity score (BT-474 [16]): 0.701; drug sensitivity score (SK-BR-3 [17]): 4.51; drug sensitivity score (MCF-10A [18]): 1.72; drug sensitivity score (HDQ-P1): 0; EC50, CellTiter-Glo (BT-549 [19]): 0.639 µM; EC50, CellTiter-Glo (MDA-MB-453 [20]): 0.552 µM; EC50, CellTiter-Glo (Hs578T [21]): 0.519 µM; EC50, CellTiter-Glo (MDA-MB-468 [22]): 0.613 µM; EC50, CellTiter-Glo (CAL-85-1 [23]): 0.528 µM; EC50, CellTiter-Glo (CAL-120 [24]): 0.991 µM; EC50, CellTiter-Glo (MDA-MB-231): 0.554 µM; EC50, CellTiter-Glo (MDA-MB-436 [25]): 0.391 µM; EC50, CellTiter-Glo (BT-474 [26]): > 1 µM; EC50, CellTiter-Glo (SK-BR-3 [27]): 0.387 µM; EC50, CellTiter-Glo (MCF-10A [28]): 0.318 µM; EC50, CellTiter-Glo (CAL-51 [29]): 0.744 µM

What does the source list for C/C(=C\c1csc(C)n1)[C@@H]1C[C@@H]2O[C@]2(C)CCC[C@H](C)[C@H](O)[C@@H](C)C(=O)C(C)(C)[C@@H](O)CC(=O)O1 [Patupilone]?
normalised viability (BT-549 [1]): 27.2%; normalised viability (CAL-148 [2]): 57.9%; normalised viability (MDA-MB-453 [3]): 63.5%; normalised viability (MFM-223): 45.9%; normalised viability (Hs578T [4]): 14.1%; normalised viability (HCC1937 [5]): 10.9%; normalised viability (MDA-MB-468 [6]): 49.5%; normalised viability (HCC1599): 92.2%; normalised viability (CAL-120 [7]): 23.2%; normalised viability (MDA-MB-436 [8]): 39.5%; normalised viability (BT-474 [9]): 24.8%; normalised viability (SK-BR-3 [10]): 15.8%; normalised viability (CAL-51 [11]): 103%; normalised viability (HCC1143): 34.3%; drug sensitivity score (BT-549 [12]): 20.5; drug sensitivity score (CAL-148 [13]): 10.2; drug sensitivity score (MDA-MB-468 [14]): 18.2; drug sensitivity score (CAL-85-1 [15]): 16.3; drug sensitivity score (BT-474 [16]): 5.69; drug sensitivity score (SK-BR-3 [17]): 15.1; drug sensitivity score (MCF-10A [18]): 8.33; drug sensitivity score (HDQ-P1): 4.83; EC50, CellTiter-Glo (BT-549 [19]): 0.00909 µM; EC50, CellTiter-Glo (MDA-MB-453 [20]): 0.0849 µM; EC50, CellTiter-Glo (Hs578T [21]): 0.0573 µM; EC50, CellTiter-Glo (HCC1937 [30]): > 1 µM; EC50, CellTiter-Glo (MDA-MB-468 [22]): 0.00753 µM; EC50, CellTiter-Glo (CAL-85-1 [23]): 0.0189 µM; EC50, CellTiter-Glo (CAL-120 [24]): 0.0738 µM; EC50, CellTiter-Glo (MDA-MB-231): 0.149 µM; EC50, CellTiter-Glo (MDA-MB-436 [25]): 0.0149 µM; EC50, CellTiter-Glo (BT-474 [26]): 0.219 µM; EC50, CellTiter-Glo (SK-BR-3 [27]): 0.0389 µM; EC50, CellTiter-Glo (MCF-10A [28]): 0.0574 µM; EC50, CellTiter-Glo (CAL-51 [29]): 0.00854 µM
